Measured values from ChEMBL document CHEMBL4834418, “Pentaminomycins F and G, Nonribosomal Peptides Containing 2-Pyridylalanine” (2021).
In brackets after ≈: the same amount, converted by molar mass. Activity calls are given as the source filed them. The rule behind the calls is not given here. Starred links: 1 amine or outer side, 2 acyl side, 3 side chain; linkers in the order of their positions; H or OH if unused. Non-standard residues stand in square brackets, D forms with d. Residues, ends and D or L forms follow the SMILES beside them. X1 = N=C(N)N(O)CCC[C@H](N[*:1])C(=O)[*:2]

Key:
Escherichia coli = assay: Antibacterial activity against Escherichia coli ATCC 25922 measured after overnight incubation; type: functional, organism-based
Acinetobacter baumannii = assay: Antibacterial activity against Acinetobacter baumannii MB5973 measured after overnight incubation; type: functional
Klebsiella pneumoniae = assay: Antibacterial activity against Klebsiella pneumoniae ATCC 700603 measured after overnight incubation; type: functional, organism-based
Pseudomonas aeruginosa = assay: Antibacterial activity against Pseudomonas aeruginosa MB5919 measured after overnight incubation; type: functional, organism-based

SMILES	Activity (Escherichia coli)	MIC (Acinetobacter baumannii) [µg/mL]	Activity (Klebsiella pneumoniae)	Activity (Pseudomonas aeruginosa)
CC(C)C[C@@H]1NC(=O)[C@@H](CC(C)C)NC(=O)[C@H](CCCN(O)C(=N)N)NC(=O)[C@H](Cc2c[nH]c3ccccc23)NC(=O)[C@@H](C(C)C)NC1=O (cyclo(L[dV]W[X1][dL]))	inactive	16 (≈ 23.4 µM)	inactive	inactive
CC(C)C[C@@H]1NC(=O)[C@@H](Cc2ccccc2)NC(=O)[C@H](CCCN(O)C(=N)N)NC(=O)[C@H](Cc2c[nH]c3ccccc23)NC(=O)[C@@H](C(C)C)NC1=O	inactive	16 (≈ 22.3 µM)	inactive	inactive
